Results published in article PMC4894417, “Quantitative High-Throughput Profiling of Environmental Chemicals and Drugs that Modulate Farnesoid X Receptor” (Scientific Reports, 2014).
“And” between values parts separate entries of the source, which are not always exact repeats. Identical values can stand only once. “Also recorded” adds a separate entry of the source. Like-named read-outs stand apart in the source and are kept apart here. Blank lines part the entries; values can stand above or below the compound they belong to.

How the values were obtained:
[1] = molecular target: T1, human FXR (Homo sapiens, UniProt Q96RI1); assay: FXR-bla reporter gene assay, agonist mode (qHTS); settings: for FXR-bla, agonist EC50: Table 1, confirmed compounds, mean ± SD of 3 experiments; for FXR-bla, agonist Efficacy: Table 1, activation as percent of positive control (CDCA 100%), mean ± SD of 3; for FXR agonist activity: FXR-bla assay
[2] = Cell viability assay (CellTiter Glo) in the same well as FXR-bla; settings: human, FXR-UAS-bla HEK293T cells
[3] = tested on: FXR-UAS-bla HEK293T cells; assay: as above; settings: for Cell viability IC50: Table 1, mean ± SD of 3 experiments
[4] = molecular target: T1, human FXR; assay: FXR-bla reporter gene assay, antagonist mode (CDCA-induced transactivation); settings: for FXR-bla, antagonist Efficacy: inhibition as percent of positive control (guggulsterone)
[5] = molecular target: T2, FXR-LBD (Homo sapiens, UniProt Q96RI1); assay: FXR TR-FRET coactivator recruitment assay, agonist mode; assay type: biochemical; settings: Table 1; coactivator SRC2-2 recruitment
T2 construct: The glutathione S-transferase (GST)-tagged FXR-LBD protein; purchased Life Technologies
T2 sequence (Q96RI1 262-486 limits assumed): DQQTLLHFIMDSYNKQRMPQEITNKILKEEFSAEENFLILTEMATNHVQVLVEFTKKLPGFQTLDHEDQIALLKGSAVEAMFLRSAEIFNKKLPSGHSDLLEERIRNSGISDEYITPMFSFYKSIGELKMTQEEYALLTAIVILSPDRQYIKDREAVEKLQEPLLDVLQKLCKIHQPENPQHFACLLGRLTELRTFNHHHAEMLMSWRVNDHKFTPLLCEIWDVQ

[6] = molecular target: T2, FXR-LBD; assay: FXR TR-FRET coactivator recruitment assay, antagonist mode (50 μM CDCA); assay type: biochemical
[7] = tested on: FXR-UAS-bla HEK293T cells
[8] = molecular target: vitamin D receptor (VDR) (Homo sapiens, UniProt P11473); assay: VDR-bla reporter gene assay (agonist and antagonist modes)
[9] = molecular target: peroxisome proliferator-activated receptor gamma (PPARγ) (Homo sapiens, UniProt P37231); assay: PPARγ-bla reporter gene assay (agonist and antagonist modes)
[10] = Table 1, in the presence of 50 μM CDCA
[11] = Table S1, primary screening, CDCA 100%
[12] = Table S1, primary screening, 50 µM CDCA
[13] = read-out: FXR agonist mode EC50, Table S1, primary screening

T1 sequence (Q96RI1 with tags, fused parts or gaps limits assumed): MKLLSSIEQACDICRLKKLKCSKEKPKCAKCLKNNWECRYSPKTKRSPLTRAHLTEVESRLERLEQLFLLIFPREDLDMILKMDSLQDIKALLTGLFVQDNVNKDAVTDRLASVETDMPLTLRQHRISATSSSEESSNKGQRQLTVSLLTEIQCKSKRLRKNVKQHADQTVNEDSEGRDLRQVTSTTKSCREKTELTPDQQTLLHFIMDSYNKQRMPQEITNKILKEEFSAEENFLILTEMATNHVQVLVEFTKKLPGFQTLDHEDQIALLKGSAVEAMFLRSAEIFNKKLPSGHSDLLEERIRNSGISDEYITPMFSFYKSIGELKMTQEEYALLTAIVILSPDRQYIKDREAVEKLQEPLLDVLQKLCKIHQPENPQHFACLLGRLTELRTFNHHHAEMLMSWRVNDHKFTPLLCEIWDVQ
Sequence of vitamin D receptor (VDR) (P11473 with tags, fused parts or gaps limits assumed): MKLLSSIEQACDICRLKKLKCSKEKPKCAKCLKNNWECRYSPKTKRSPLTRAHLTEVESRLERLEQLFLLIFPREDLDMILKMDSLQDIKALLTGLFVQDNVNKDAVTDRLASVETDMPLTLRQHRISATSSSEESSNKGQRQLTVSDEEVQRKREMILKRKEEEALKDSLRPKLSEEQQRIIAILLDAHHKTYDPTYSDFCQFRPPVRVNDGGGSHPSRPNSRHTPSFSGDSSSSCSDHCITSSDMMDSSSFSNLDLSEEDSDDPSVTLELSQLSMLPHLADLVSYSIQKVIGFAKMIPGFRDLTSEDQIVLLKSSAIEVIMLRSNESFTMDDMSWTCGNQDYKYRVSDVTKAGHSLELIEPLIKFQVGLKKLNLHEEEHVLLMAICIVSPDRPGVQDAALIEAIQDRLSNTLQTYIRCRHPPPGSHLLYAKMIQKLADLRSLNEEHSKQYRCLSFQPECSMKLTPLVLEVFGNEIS
Sequence of peroxisome proliferator-activated receptor gamma (PPARγ) (P37231 with tags, fused parts or gaps limits assumed): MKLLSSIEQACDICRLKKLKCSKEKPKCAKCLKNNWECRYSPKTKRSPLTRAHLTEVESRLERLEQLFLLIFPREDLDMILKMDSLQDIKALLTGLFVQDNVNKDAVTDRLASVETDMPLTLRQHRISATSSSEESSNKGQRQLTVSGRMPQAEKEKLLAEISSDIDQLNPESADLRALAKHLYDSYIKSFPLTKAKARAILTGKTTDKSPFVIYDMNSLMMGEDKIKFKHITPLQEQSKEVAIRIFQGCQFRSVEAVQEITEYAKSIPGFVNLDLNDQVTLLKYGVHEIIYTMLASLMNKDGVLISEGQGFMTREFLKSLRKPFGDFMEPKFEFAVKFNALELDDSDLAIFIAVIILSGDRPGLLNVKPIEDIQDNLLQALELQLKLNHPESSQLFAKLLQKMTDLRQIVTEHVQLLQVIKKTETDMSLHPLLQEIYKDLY

Compound: C[C@H]1O[C@@H](O[C@H]2[C@@H](O)C[C@H](O[C@H]3[C@@H](O)C[C@H](O[C@H]4CC[C@@]5(C)[C@H](CC[C@@H]6[C@@H]5C[C@@H](O)[C@]5(C)[C@@H](C7=CC(=O)OC7)CC[C@]65O)C4)O[C@@H]3C)O[C@@H]2C)C[C@H](O)[C@@H]1O [Digoxin]
FXR agonist mode EC50 [1]: Inactive
IC50 at 16 h [2]: 0.02 ± 0.01 µM
Cytotoxicity Efficacy ([3]; Table S1, primary screening): 35 ± 7%
FXR antagonist activity [4]: inconclusive antagonists
FXR antagonist mode Efficacy [4]: 92 ± 10%
IC50 ([4]; FXR antagonist mode IC50, Table S1, primary screening, 50 µM CDCA): 0.08 ± 0.02 µM

FXR TR-FRET, agonist EC50 [5]: Inactive
FXR TR-FRET, antagonist IC50 [6, 10]: Inactive
FXR-bla, agonist EC50 [1]: Inactive
IC50 [4]: 10.2 ± 0.69 µM
FXR-bla, antagonist Efficacy ([4]; Table 1, 50 μM CDCA): 110 ± 9%
Compound: Cn1cc(C2=C(c3cn(C4CCN(Cc5ccccn5)CC4)c4ccccc34)C(=O)NC2=O)c2ccccc21 [Enzastaurin]
Cell viability IC50 [3]: Inactive

FXR TR-FRET, antagonist IC50 [6, 10]: Inactive
EC50 [1]: 11.2 ± 2.09 µM
FXR-bla, agonist Efficacy [1]: 152% and 152 ± 22%
FXR-bla, antagonist IC50 ([4]; Table 1, 50 μM CDCA, mean ± SD of 3 experiments): Inactive
Compound: Nc1c2ccccc2nc2ccccc12 [9-Aminoacridine]
FXR TR-FRET, agonist EC50 [5]: unable to induce coactivator recruitment; also recorded: Inactive
Cell viability IC50 [3]: Inactive

EC50 [1]: 47.3 µM
FXR agonist mode Efficacy [1, 11]: 50 ± 12%
FXR antagonist mode IC50 [4, 12]: Inactive
Compound: C[C@H](CCC(=O)O)[C@H]1CC[C@H]2[C@@H]3CC[C@@H]4C[C@H](O)CC[C@]4(C)[C@H]3C[C@H](O)[C@]12C [DCA, Deoxycholic acid]
FXR agonist activity [1]: selectively induced transactivation of FXR
IC50 at 16 h [2]: 66.5 ± 16.1 µM
Cytotoxicity Efficacy ([3]; Table S1, primary screening): 73 ± 17%

EC50 [7]: 14 ± 1.6 µM
IC50 [7]: 14 ± 1.6 µM
FXR agonist mode Efficacy [1, 11]: 41 ± 1%
FXR agonist Efficacy ([1]; Table S3): 41 ± 1%
EC50 [1, 13]: 5.33 ± 0.35 µM
FXR antagonist mode Efficacy [4, 12]: 110 ± 6%
FXR antagonist Efficacy ([4]; Table S3, 50 µM CDCA): 110 ± 6%
IC50 ([4]; read-out: FXR antagonist mode IC50, Table S1, primary screening, 50 µM CDCA): 14.5 ± 0.98 µM
Compound: Eprinomectin B1a
Cytotoxicity Efficacy [7]: 108 ± 4%

FXR agonist mode Efficacy [1, 11]: 20 ± 7%
FXR antagonist mode Efficacy [4, 12]: 75 ± 40%
Compound: C[C@H](CCC(=O)O)[C@H]1CC[C@H]2[C@@H]3CC[C@@H]4C[C@H](O)CC[C@]4(C)[C@H]3CC[C@]12C [LCA, lithocholic acid]
FXR agonist activity [1]: selectively induced transactivation of FXR
IC50 at 16 h [2]: 43.8 ± 4.18 µM
Cytotoxicity Efficacy ([3]; Table S1, primary screening): 65 ± 22%

Compound: CC1(C)CCC(C)(C)c2cc(NC(=O)c3ccc(C(=O)O)cc3)ccc21 [AM80]
Cytotoxicity IC50 [7]: Inactive
FXR agonist mode Efficacy [1]: 18 ± 7
FXR agonist activity [1]: selectively induced transactivation of FXR
EC50 [1, 13]: 38.9 ± 2.36 µM
FXR antagonist mode IC50 [4]: Inactive

Compound: COCCOC(=O)C1=C(C)NC(C)=C(C(=O)OC(C)C)C1c1cccc([N+](=O)[O-])c1 (centres unmarked) [Nimodipine]
Cytotoxicity IC50 [7]: Inactive

Compound: O=C1c2ccccc2C(=O)C1C(=O)C(c1ccccc1)c1ccccc1 [Diphacinone]
FXR TR-FRET, agonist EC50 [5]: Inactive
FXR TR-FRET, antagonist IC50 [6]: Inactive
FXR-bla, agonist EC50 [1]: Inactive
Cell viability IC50 [3]: Inactive
IC50 ([4]; FXR-bla, antagonist IC50): 15 µM

Compound: CC(C)[C@H](C(=O)OC(C#N)c1cccc(Oc2ccccc2)c1)c1ccc(OC(F)F)cc1 (some centres unmarked) [Flucythrinate]
FXR agonist mode EC50 ([1]; Table S1, primary screening): Inactive
VDR activity [8]: antagonist activity
Cytotoxicity IC50 ([3]; Table S1, primary screening): Inactive
FXR antagonist mode Efficacy [4]: 37 ± 9
IC50 ([4]; FXR antagonist mode IC50): 31.4 ± 20.5 µM

EC50 [1]: 6.92 ± 4 µM
FXR agonist activity [1]: weak FXR agonist activity
FXR agonist mode Efficacy [1, 11]: 13 ± 1%
IC50 [4]: 19.2 ± 10.4 µM
FXR antagonist mode Efficacy [4, 12]: 57 ± 35%
Compound: COC(=O)C1=C(C)NC(C)=C(C(=O)OCCN2CCN(C(c3ccccc3)c3ccccc3)CC2)C1c1cccc([N+](=O)[O-])c1 (centres unmarked) [Manidipine]
IC50 at 16 h [2]: 18.2 ± 15.1 µM
Cytotoxicity Efficacy ([3]; Table S1, primary screening): 49 ± 17%

FXR TR-FRET, agonist EC50 [5]: Inactive
FXR TR-FRET, antagonist IC50 [6, 10]: Inactive
FXR-bla, agonist EC50 [1]: Inactive
IC50 [4]: 0.1 ± 0.04 µM
FXR-bla, antagonist Efficacy ([4]; Table 1, 50 μM CDCA): 57 ± 7%
FXR antagonist Efficacy ([4]; Table S3, 50 µM CDCA): 59 ± 2%
Compound: CC[C@]1(O)C[C@@H]2CN(CCc3c([nH]c4ccccc34)[C@@](C(=O)OC)(c3cc4c(cc3OC)N(C)[C@H]3[C@@](O)(C(=O)OC)[C@H](OC(C)=O)[C@]5(CC)C=CCN6CC[C@]43[C@@H]65)C2)C1 [Vinblastine]
Cell viability IC50 [3]: Inactive

Compound: C/C=C1\C(=O)C[C@H]2[C@@H]3CCC4=CC(=O)CC[C@]4(C)[C@H]3CC[C@]12C [(Z)-Guggulsterone]
Cytotoxicity IC50 [7]: Inactive

Compound: COC(=O)Nc1nc2ccc(C(=O)c3cccs3)cc2[nH]1 [Nocodazole]
FXR TR-FRET, agonist EC50 [5]: Inactive
FXR TR-FRET, antagonist IC50 [6]: Inactive
FXR-bla, agonist EC50 [1]: Inactive
VDR activity [8]: inhibiting β-lactamase expression
PPARγ activity [9]: inhibiting β-lactamase expression
Cell viability IC50 [3]: Inactive
FXR antagonist Efficacy [4]: 54 ± 2%
FXR antagonist activity ([4]; FXR-bla assay, CDCA-induced): inhibiting β-lactamase expression
IC50 ([4]; FXR-bla, antagonist IC50): 0.29 µM
IC50 ([4]; IC50, FXR-bla antagonist mode, primary screening, CDCA-induced): 0.32 µM

Compound: CC1=C(/C=C/C(C)=C/C=C/C(C)=C\C(=O)O)C(C)(C)CCC1 [13-cis Retinoic acid]
Cytotoxicity Efficacy [7]: 52 ± 44

FXR TR-FRET, agonist EC50 [5]: Inactive
FXR TR-FRET, antagonist IC50 [6, 10]: Inactive
FXR-bla, agonist EC50 [1]: Inactive
IC50 [4]: 3.5 ± 0.4 µM
FXR-bla, antagonist Efficacy ([4]; Table 1, 50 μM CDCA): 81 ± 5%
FXR antagonist Efficacy ([4]; Table S3, 50 µM CDCA): 53 ± 11%
Compound: OCCN(CCO)c1nc(N2CCCCC2)c2nc(N(CCO)CCO)nc(N3CCCCC3)c2n1 [Dipyridamole]
Cell viability IC50 [3]: Inactive

Compound: CO[C@H]1C[C@H](O[C@@H]2/C(C)=C/C[C@@H]3C[C@@H](C[C@]4(CC[C@H](C)[C@@H](C5CCCCC5)O4)O3)OC(=O)[C@@H]3C=C(C)/C(=N/O)[C@H]4OC/C(=C\C=C\[C@@H]2C)[C@]43O)O[C@@H](C)[C@@H]1O [Selamectin]
Cytotoxicity IC50 [7]: Inactive
FXR agonist Efficacy [1]: 68 ± 5%
FXR agonist mode Efficacy [1]: 68 ± 5%
EC50 ([1]; FXR agonist mode EC50): 5.98 ± 0.39 µM
FXR antagonist Efficacy [4]: 45 ± 6%
FXR antagonist mode Efficacy [4]: 45 ± 6%
IC50 ([4]; FXR antagonist mode IC50): 2.48 ± 0.82 µM

Compound: CC1=C2C[C@H]3[C@@H](CC=C4C[C@@H](O)CC[C@@]43C)[C@@H]2CC[C@]12O[C@@H]1C[C@H](C)CN[C@H]1[C@H]2C [Cyclopamine]
FXR TR-FRET, agonist EC50 [5]: unable to induce coactivator recruitment; also recorded: Inactive
FXR TR-FRET, antagonist IC50 [6, 10]: Inactive
EC50 [1]: 10.6 ± 3.13 µM
FXR-bla, agonist Efficacy [1]: 94% and 94 ± 9%
IC50 ([3]; Homo sapiens, HEK-293T, read-out: Cell viability IC50): 17.6 µM
FXR-bla, antagonist IC50 [4]: Inactive

EC50 [1]: 3.64 ± 0.84 µM
FXR agonist activity [1]: weak FXR agonist activity
FXR agonist mode Efficacy [1, 11]: 33 ± 7%
FXR agonist Efficacy ([1]; Table S3): 33 ± 7%
IC50 [4]: 16.7 ± 5.67 µM
FXR antagonist mode Efficacy [4, 12]: 116 ± 10%
FXR antagonist Efficacy ([4]; Table S3, 50 µM CDCA): 116 ± 10%
Compound: COC(=O)C1=C(C)NC(C)=C(C(=O)OCCN(C)Cc2ccccc2)C1c1cccc([N+](=O)[O-])c1 (centres unmarked) [Nicardipine]
EC50 at 16 h [2]: 31.9 ± 15.8 µM
IC50 at 16 h [2]: 31.9 ± 15.8 µM
Cytotoxicity Efficacy ([3]; Table S1, primary screening): 125 ± 27%
Cytotoxicity Efficacy ([3]; Table S3): 125 ± 27%

Compound: C/C=C1/C(=O)C[C@H]2[C@@H]3CCC4=CC(=O)CC[C@]4(C)[C@H]3CC[C@]12C [(E)-Guggulsterone]
Cytotoxicity IC50 [7]: Inactive

Compound: O=c1c(-c2ccc(O)cc2)coc2cc(O)cc(O)c12 [Genistein]
Cytotoxicity IC50 [7]: Inactive
FXR agonist mode EC50 ([1]; Table S1, primary screening): Inactive
IC50 ([4]; FXR antagonist mode IC50): 22.9 ± 3.16 µM
FXR antagonist mode Efficacy [4, 12]: 57 ± 6%
